This is an account of results in ChEMBL document CHEMBL5346971, “Discovery of the First Irreversible HDAC6 Isoform Selective Inhibitor with Potent Anti-Multiple Myeloma Activity” (J Med Chem, 2023).

Calls of active or inactive are those of the source. The calls are words filed in the database; no cut-off is given here.

Broadly, the half-life is the time in which the quantity being followed falls by half. A word on the IC50: it is the midpoint of a concentration-inhibition curve.

Data set [1] has as its target T1, Class 1 histone deacetylase (Homo sapiens) (UniProt Q13547+O15379+Q92769+Q9BY41). Nature of the data set: Irreversible inhibition of class 1 HDAC in human A549 cells assessed as acetyl histone H3 level at 0.4 uM incubated for 5 hrs followed by drug wash-out for 24 hrs by western blot analysis relative to control. Format: cell-based.
The subject of data set [2] is RPMI-8226. Nature of the data set: Induction of cell cycle arrest in human RPMI-8226 cells assessed as proportion of cells at S phase at 0.1 uM incubated for 24 hrs by PI staining based flow cytometry (reference value: 46.7%). Format: functional. For orientation: Flow cytometry measures light scatter and fluorescence of single cells or particles in a stream.
For data set [3], the target named is T1, Class 1 histone deacetylase (Homo sapiens). Nature of the data set: Irreversible inhibition of class 1 HDAC in human A549 cells assessed as acetyl histone H3 level at 0.4 uM incubated for 5 hrs followed by drug wash-out for 6 hrs by western blot analysis relative to control. Format: cell-based.
Data set [4] in a line: Half-life in rat liver microsomes in presence of NADPH by LC-MS/MS analysis. Format: ADME, Microsome. (Liver microsomes are a subcellular fraction often used to study metabolism.)
The subject of data set [5] is RPMI-8226. Nature of the data set: Induction of apoptosis in human RPMI-8226 cells assessed as proportion of viable cells at 0.5 uM incubated for 24 hrs by AnnexinV-FITC/PI staining based flow cytometry (reference value: 84.71%). Format: functional, cell-based.
Data set [6] can be described thus: Metabolic stability of the compound in human liver microsomes assessed as parent compound remaining measured after 60 mins in presence of NADPH by LC-MS/MS analysis. Format: ADME, Microsome. Particulars: read-out: Stability.
Data set [7] has as its target T2, Protein deacetylase HDAC6 (Homo sapiens) (UniProt Q9UBN7).
T2 sequence (whole entry): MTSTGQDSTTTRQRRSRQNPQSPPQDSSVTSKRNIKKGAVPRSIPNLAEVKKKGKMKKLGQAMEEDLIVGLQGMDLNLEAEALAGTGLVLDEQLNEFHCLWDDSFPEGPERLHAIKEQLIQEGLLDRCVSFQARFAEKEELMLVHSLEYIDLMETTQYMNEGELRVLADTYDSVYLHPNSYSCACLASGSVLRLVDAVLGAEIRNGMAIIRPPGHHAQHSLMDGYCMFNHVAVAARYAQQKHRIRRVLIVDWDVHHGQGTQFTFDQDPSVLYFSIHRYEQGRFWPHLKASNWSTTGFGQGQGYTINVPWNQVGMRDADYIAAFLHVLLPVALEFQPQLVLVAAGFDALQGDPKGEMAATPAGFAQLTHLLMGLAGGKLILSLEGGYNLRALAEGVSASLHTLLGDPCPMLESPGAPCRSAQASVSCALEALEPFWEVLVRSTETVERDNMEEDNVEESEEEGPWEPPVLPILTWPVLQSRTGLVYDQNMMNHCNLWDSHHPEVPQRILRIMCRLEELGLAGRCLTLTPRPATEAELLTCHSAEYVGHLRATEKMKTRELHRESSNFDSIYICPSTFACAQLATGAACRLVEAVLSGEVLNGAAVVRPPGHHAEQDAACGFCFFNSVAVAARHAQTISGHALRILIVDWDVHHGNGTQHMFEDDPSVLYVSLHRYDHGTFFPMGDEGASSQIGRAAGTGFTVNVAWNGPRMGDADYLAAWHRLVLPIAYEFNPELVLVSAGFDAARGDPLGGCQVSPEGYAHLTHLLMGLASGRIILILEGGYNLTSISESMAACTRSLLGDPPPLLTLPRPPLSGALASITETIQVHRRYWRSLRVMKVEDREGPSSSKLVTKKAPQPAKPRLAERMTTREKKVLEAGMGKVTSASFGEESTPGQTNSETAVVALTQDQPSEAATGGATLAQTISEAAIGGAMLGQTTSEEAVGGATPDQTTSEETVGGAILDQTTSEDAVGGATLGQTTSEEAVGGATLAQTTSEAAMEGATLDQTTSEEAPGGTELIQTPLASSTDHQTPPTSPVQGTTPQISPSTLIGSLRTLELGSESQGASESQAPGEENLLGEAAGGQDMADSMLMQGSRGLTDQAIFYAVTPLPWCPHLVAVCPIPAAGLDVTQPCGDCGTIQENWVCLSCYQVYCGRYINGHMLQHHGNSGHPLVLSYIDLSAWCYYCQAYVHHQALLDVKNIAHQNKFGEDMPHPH
Particulars: A549, dose 80.0 nM, time 5.0 hrs.

The target in data set [8] is Histone deacetylase 4 (Homo sapiens, UniProt P56524). Nature of the data set: Inhibition of N-terminal GST-tagged/C-terminal His-tagged human HDAC4 (627 to 1084 residues) expressed in baculovirus-infected Sf9 cells using Boc-Lys(trifluoroacety1)-AMC as substrate preincubated with enzyme for 1 hr followed by substrate addition and measured after 30 mins by fluorescence based analysis.

Data set [9] deals with Histone deacetylase 5 (Homo sapiens, UniProt Q9UQL6). Nature of the data set: Inhibition of C-terminal His-tagged human recombinant HDAC5 catalytic domain (656 to 1122 residues) expressed in baculovirus-infected Sf9 cells using Boc-Lys(trifluoroacety1)-AMC as substrate preincubated with enzyme for 1 hr followed by substrate addition and measured after 30 mins by fluorescence based analysis.

Data set [10] in a line: Effect on HDAC6 protein expression in human A549 cells assessed as change in HDAC6 protein expression at 0.4 uM incubated for 5 hrs followed by drug wash-out for 6 hrs by western blot analysis relative to control. Format: functional. (Immunoblotting shows a protein as a band on a membrane.)

T1 sequence (O15379 whole entry, looked up): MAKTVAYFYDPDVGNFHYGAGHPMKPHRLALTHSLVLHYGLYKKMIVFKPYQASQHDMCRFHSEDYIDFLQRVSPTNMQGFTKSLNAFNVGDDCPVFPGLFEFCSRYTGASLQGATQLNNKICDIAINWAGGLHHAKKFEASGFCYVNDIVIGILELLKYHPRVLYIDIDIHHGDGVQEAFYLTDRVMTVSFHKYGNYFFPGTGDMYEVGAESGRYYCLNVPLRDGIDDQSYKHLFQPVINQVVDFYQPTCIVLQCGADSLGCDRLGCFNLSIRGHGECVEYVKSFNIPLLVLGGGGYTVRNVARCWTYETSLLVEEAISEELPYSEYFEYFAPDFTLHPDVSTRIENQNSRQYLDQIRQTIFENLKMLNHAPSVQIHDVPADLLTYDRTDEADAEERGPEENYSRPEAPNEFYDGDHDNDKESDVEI
T1 sequence (Q13547 whole entry, looked up): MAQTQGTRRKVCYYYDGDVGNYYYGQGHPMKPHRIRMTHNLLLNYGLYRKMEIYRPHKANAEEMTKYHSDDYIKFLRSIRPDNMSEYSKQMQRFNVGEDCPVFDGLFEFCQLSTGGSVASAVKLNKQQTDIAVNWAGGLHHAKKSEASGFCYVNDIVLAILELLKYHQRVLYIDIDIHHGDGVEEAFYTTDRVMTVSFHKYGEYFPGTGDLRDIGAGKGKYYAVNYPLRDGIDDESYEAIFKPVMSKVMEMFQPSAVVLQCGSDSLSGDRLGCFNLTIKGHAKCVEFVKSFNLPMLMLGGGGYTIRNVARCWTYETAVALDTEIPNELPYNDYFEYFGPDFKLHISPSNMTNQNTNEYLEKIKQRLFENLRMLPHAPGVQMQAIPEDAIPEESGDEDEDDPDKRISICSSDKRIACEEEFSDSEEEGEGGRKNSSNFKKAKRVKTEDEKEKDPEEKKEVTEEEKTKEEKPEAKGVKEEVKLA
T1 sequence (Q92769 whole entry, looked up): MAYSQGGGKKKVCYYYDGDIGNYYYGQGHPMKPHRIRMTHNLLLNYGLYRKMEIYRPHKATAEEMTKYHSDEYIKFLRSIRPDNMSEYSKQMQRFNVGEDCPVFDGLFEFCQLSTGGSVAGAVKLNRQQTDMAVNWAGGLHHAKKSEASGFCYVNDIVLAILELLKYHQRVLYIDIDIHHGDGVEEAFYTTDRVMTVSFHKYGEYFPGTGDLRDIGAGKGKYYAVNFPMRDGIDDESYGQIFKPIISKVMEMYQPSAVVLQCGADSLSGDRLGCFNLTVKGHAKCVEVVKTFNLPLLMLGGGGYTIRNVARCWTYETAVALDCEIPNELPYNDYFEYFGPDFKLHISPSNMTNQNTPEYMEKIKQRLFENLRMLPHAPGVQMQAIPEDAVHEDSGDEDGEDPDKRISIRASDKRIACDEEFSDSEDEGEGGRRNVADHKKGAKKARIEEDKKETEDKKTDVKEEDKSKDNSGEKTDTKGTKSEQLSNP
T1 sequence (Q9BY41 whole entry, looked up): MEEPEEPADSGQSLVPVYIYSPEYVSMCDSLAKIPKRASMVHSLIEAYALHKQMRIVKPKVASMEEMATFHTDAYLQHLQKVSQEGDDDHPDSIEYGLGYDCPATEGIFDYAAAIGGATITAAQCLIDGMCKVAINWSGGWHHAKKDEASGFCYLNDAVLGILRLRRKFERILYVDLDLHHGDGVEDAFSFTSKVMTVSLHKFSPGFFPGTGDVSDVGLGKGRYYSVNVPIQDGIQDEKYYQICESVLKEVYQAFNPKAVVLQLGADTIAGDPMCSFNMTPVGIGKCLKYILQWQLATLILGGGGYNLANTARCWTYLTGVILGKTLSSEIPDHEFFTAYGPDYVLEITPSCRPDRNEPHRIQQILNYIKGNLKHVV
Histone deacetylase 4, sequence (P56524 whole entry, the tested form may be a part): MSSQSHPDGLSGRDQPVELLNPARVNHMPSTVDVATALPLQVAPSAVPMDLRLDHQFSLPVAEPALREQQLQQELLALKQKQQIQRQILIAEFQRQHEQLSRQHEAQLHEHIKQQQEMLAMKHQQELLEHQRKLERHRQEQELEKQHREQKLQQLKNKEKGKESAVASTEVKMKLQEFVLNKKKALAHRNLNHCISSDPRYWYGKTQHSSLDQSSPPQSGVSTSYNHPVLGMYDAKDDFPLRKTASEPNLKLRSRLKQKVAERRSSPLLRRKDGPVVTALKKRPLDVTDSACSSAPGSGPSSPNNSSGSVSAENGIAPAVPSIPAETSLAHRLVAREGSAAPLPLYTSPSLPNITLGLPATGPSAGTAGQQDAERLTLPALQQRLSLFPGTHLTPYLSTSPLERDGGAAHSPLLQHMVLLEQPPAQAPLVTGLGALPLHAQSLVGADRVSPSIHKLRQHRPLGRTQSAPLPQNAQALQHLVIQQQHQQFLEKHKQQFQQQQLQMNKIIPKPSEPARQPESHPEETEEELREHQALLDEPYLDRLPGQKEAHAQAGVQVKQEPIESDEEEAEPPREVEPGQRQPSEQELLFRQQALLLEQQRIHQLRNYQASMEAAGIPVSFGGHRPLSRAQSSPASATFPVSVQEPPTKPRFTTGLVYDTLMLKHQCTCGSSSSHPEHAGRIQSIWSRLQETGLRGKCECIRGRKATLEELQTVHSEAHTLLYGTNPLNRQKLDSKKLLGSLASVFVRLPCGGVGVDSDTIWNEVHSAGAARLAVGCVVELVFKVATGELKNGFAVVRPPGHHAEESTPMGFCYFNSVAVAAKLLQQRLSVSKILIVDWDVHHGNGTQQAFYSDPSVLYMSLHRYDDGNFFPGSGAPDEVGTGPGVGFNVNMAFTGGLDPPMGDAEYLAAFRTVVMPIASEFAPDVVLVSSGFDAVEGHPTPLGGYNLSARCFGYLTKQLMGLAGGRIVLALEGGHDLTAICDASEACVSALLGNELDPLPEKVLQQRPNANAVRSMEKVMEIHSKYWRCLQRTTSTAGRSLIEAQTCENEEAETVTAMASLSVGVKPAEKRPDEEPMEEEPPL
Histone deacetylase 5, sequence (Q9UQL6 whole entry, the tested form may be a part): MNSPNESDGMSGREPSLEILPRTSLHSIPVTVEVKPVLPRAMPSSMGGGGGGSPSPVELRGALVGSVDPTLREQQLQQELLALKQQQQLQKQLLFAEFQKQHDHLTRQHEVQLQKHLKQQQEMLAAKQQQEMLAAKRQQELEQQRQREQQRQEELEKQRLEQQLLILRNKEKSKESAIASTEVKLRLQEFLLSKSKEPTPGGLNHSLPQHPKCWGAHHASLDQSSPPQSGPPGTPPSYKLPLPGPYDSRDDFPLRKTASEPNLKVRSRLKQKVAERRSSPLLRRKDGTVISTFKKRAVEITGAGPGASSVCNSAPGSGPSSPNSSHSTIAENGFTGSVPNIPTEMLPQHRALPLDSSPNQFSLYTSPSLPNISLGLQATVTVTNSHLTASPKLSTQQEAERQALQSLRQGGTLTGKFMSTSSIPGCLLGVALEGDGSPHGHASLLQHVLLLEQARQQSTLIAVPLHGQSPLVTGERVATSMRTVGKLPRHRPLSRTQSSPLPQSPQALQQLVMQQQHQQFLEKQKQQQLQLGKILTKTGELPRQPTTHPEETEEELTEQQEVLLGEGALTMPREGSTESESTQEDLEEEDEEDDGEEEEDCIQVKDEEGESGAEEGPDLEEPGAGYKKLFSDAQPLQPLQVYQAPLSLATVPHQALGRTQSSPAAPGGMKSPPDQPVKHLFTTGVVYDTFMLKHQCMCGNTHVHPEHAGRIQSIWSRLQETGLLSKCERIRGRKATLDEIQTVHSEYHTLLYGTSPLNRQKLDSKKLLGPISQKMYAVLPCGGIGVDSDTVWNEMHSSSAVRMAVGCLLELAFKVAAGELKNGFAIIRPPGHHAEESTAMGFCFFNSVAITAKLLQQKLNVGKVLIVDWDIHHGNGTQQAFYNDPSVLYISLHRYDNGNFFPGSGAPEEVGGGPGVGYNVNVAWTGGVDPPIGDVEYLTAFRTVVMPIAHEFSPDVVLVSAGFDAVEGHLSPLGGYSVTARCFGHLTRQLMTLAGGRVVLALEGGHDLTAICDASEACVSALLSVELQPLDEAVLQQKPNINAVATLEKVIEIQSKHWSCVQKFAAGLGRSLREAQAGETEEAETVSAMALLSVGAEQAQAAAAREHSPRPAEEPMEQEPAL

`O=C(NO)c1ccc(COc2no[n+]([O-])c2S(=O)(=O)c2ccccc2)cc1`: the fold change (FC) in [1] amounted to 1.2; in [3], 1.1; in [10], 1.1. In [2], the Activity is on record as 49.8%. Also, in data set [4], the half-life was determined as 9.2 min. Further, in data set [5], the outcome was Active. Also, the remaining at 1 h in data set [6] is less than 0.33%. Also, in data set [7], the inhibition entry is “Active”. Also, the IC50 in data set [8] and in data set [9] was more than 40 µM each time.
